Molecular target: T1, Human ENaC δ, β and γ subunit (Homo sapiens, UniProt P51168+P51170+P51172)
T1 construct: expressed in transfected cells; host or cells: Xenopus laevis (African clawed frog) oocytes injected with cRNA
T1 sequence (P51172 1-802): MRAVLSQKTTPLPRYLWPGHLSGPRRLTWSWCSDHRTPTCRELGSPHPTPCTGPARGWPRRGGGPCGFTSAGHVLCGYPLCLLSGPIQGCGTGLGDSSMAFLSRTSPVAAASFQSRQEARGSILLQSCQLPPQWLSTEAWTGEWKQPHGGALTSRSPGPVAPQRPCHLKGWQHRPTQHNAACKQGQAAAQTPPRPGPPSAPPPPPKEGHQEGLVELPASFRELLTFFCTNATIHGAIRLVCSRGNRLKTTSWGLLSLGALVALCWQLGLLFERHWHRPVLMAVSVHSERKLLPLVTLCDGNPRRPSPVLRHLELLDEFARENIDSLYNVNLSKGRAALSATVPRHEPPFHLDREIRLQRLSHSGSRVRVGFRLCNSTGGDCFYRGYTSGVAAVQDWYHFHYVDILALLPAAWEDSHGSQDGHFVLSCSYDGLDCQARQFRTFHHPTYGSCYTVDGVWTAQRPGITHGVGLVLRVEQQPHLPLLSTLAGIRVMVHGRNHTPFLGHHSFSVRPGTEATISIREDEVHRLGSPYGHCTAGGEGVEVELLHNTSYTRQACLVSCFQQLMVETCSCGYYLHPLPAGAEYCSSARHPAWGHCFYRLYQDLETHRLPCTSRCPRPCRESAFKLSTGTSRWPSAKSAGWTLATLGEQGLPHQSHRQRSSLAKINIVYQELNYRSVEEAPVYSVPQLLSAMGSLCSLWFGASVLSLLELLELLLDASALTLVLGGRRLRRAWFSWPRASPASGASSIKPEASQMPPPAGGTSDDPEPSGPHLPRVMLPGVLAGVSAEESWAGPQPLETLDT
T1 sequence (P51168 1-640): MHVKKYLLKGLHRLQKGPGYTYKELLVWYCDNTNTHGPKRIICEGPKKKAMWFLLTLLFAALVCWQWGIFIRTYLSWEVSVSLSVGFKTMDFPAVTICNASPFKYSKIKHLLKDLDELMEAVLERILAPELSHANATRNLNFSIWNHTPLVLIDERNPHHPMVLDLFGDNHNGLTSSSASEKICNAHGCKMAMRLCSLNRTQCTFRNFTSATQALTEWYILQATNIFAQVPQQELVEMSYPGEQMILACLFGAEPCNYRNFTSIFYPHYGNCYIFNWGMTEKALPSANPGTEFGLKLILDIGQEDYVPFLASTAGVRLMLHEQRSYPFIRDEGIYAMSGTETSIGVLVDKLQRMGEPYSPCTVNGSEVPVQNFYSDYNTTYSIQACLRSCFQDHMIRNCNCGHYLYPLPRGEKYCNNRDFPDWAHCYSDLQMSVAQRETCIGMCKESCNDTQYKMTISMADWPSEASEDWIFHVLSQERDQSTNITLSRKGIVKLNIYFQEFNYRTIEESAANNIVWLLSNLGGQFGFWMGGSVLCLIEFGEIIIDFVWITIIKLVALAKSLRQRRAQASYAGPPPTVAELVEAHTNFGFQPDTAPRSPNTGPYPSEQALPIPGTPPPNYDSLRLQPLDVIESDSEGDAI
T1 sequence (P51170 1-649): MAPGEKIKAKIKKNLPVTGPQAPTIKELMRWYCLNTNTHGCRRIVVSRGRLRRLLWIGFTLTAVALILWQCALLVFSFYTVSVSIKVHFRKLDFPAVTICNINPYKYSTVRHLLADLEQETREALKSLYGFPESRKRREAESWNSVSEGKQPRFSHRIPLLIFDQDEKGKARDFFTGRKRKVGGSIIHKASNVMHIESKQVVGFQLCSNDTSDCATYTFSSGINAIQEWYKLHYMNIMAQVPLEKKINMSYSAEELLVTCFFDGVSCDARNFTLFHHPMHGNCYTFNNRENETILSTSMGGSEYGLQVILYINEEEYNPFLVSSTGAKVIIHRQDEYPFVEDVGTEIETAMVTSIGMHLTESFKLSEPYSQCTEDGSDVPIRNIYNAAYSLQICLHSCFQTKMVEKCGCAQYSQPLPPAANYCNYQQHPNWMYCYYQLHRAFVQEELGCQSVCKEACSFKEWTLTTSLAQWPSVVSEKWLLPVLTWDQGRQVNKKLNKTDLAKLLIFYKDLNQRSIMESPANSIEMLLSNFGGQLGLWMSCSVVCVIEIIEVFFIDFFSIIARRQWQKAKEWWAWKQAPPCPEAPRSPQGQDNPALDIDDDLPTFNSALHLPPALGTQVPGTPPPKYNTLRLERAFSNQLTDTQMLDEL
Assay: Measurement of ENaC activation potency (MED) in ENaC-expressing oocyte, Two Electrode Voltage Clamp
Assay type: cell-based
Settings: minimum effective dose at which current started to increase; ENaC-expressing African clawed frog oocyte; smaller MED = higher ENaC activation potency
Experimental: ENaC activation current value, namely, the inward current in ENaC-expressing oocyte was measured as follows.
According to the method described in Motonao Nakamura, Takao Shimizu: Experiment of African clawed frog oocyte, Experimental Medicine Vol. 11, No. 3, 224-232 (1993), oocyte was collected from African clawed frog, […], and the current value was measured by a Two Electrode Voltage Clamp technique. In the present invention, ND96 (96 mM NaCl, 2 mM KCl, 1 mM MgCl2, 5 mM Hepes, 1.8 mM CaCl2, pH 7.6) was used instead of MBS buffer in the above-mentioned document. Injector NANOLITER 2000 manufactured by World Precision Instruments was used for microinjection, OpusXpress 6000A manufactured by Molecular Devices was used for current value measurement by a Two Electrode Voltage Clamp technique, and Clampfit 10.2 software manufactured by Molecular Devices was used for data analysis.
Human ENaC δ, β and γ subunit genes shown by SEQ ID NOs: 1, 2 and 3, respectively, in the Sequence Listing were each cloned into a plasmid vector, and used as a template DNA for cRNA synthesis. cRNA was synthesized using MEGAscript kit manufactured by Ambion and according to the method of the manual of the manufacturer.
A mixture of the same amount of ENaC […] cRNA (0.4 to 0.8 μg/μL), and β and γ subunits cRNA (0.4 μg/μL) was injected into the oocyte of African clawed frog at […] per oocyte, and the oocyte was cultured for 16 hr-72 hr. Thereafter, the oocyte was set on a measuring apparatus OpusXpress 6000A, the electrodes were inserted into the oocyte, the voltage was clamped at a level lower by −30 mV than the resting membrane potential by a Two Electrode Voltage Clamp technique, and the current value was measured.
To measure the ENaC activation potency, oocyte was stimulated with each test compound, and the minimum effective dose (hereinafter to be abbreviated as MED) of the compound at the time point when the electric current started to increase was measured. In this case, whichever smaller value of the minimum effective dose of the stimulation compound that increased the current value by not less than 10%, and the minimum effective concentration of the compound that increased, by not less than 25%, the electric current increase value due to the stimulation by 5 μM capsazepine (CAS NO.: 138977-28-3), as compared to the current value before addition of the compound and without stimulation, was taken as MED. A smaller MED means higher ENaC activation potency.
Each test compound was directly dissolved in ND96, or first dissolved in dimethyl sulfoxide (DMSO) to 100 mM, and then prepared by diluting the solution with ND96 to a concentration used for the evaluation. The concentration of the test compound in ND96 was prepared to various concentrations within the range of 0.1 nM to 300 μm.
ND96 as a perfusion fluid was flown at a rate of 0.5 mL/min through the measuring apparatus OpusXpress 6000A on which ENaC-expressing oocyte was set, the perfusion fluid was temporarily stopped every 3 minutes to add a test compound solution (0.25 mL) dissolved in ND96 at a rate of 0.5 mL/min. In this way, the test compound was contacted with ENaC-expressing oocyte, and whether ENaC is activated by the compound was examined by measuring the current value. After addition of the test compound, feeding of the perfusion fluid was resumed to wash away the compound to be ready for the next addition of the compound.
The compound was added successively from a low concentration to a high concentration to stimulate ENaC-expressing oocyte. The concentrations actually added was, for example, 1 nM, 3 nM, 10 nM, 30 nM, 100 nM, 300 nM; 1 μM, 3 μM, 10 μm, 30 μm, 100 μm, 300 μm; 1.2 μM, 6 μM, 30 μm, 150 μm of one test compound. The compound was added from low concentrations to high concentrations at 3 min intervals. […]

Row | MED [µM] | Structure (SMILES)
1 | 10 | S=C(CCc1ccccc1)NCCc1ccccc1 [Example 81]
2 | 30 | O=C1C(c2ccccc2)NC(=S)N1CCc1ccccc1 (centres unmarked) [Example 49]
3 | 3 | Oc1ccc(CCNC(=S)NCc2ccccc2)cc1 [Example 17]
4 | 10 | C[C@@H](NC(=S)N[C@H](C)c1ccccc1)c1ccccc1 [Example 25]
5 | 30 | OCCNC(=S)NCc1ccccc1 [Example 15]
6 | 1 to 3 | COc1ccccc1CNC(=S)NCCc1ccccc1 [Example 28]
7 | 30 | COc1cc2c(cc1OC)CN(C(=S)NCCc1ccc(Cl)cc1)CC2 [Example 3]
8 | 30 | NC(=O)CNC(=S)NCc1ccccc1 [Example 53]
9 | 1 | Nc1cccc(CNC(=S)NCCc2ccccc2)c1 [Example 79, 1-(3-aminobenzyl)-3-(2-phenylethyl)thiourea]
10 | 1 | ON(Cc1ccccc1)C(=S)NCCc1ccccc1 [Example 69]
11 | 30 | C[C@@H](NC(=S)NN)c1ccccc1 [Example 36]
12 | 3 to 10 | C[C@@H](NC(=S)N/N=C/c1c(O)cccc1O)c1ccccc1 [Example 94]
13 | 1 | OC(CNC(=S)NCc1ccccc1)c1ccccc1 (centres unmarked) [Example 54]
14 | 3 to 10 | S=C(NCCc1ccccc1Br)NCc1ccccc1 [Example 74]
15 | 3 | S=C(NCCc1ccccn1)NCc1ccccc1 [Example 14]
16 | 30 | S=C(NCCc1ccccc1)N(Cc1ccccc1)Cc1ccccc1 [Example 22]
17 | 30 | COc1cccc(OC)c1/C=N/NC(=S)N[C@H](C)c1ccccc1 [Example 92, (E)-1-(2,6-dimethoxybenzylidene)-4-((R)-1-phenylethyl)thiosemicarbazide]
18 | 0.06 to 0.1 | C[C@@H](NC(=S)NCCc1ccccc1O)c1ccc(O)c(O)c1 [Example 104]
19 | 0.3 | C[C@@H](NC(=S)N[C@@H](Cc1ccccc1)C(=O)O)c1cccc(O)c1 [Example 108]

Row | MED [µM] | Structure (SMILES)
20 | 30 | COC(=O)c1ccccc1/C=N/NC(=S)N[C@H](C)c1ccccc1 [Example 96, methyl 2-{(E)-[4-((R)-1-phenylethyl)thiosemicarbazono]methyl}benzoate]
21 | 30 | FC(F)(F)c1ccc(CNC(=S)NCCc2ccccc2)cc1 [Example 30]
22 | 3.3 | S=C(NCCc1ccccc1)NCc1ccc2c(c1)OCO2 [Example 26]
23 | 3 | S=C(NCCc1ccccc1)NCc1cccc2ccccc12 [Example 20]
24 | 30 | COc1cccc(OC)c1CNNC(=S)N[C@H](C)c1ccccc1 [Example 93, 1-(2,6-dimethoxybenzyl)-4-((R)-1-phenylethyl)thiosemicarbazide]
25 | 3 | Oc1ccc(CNC(=S)Nc2ccccc2)cc1O [Example 46]
26 | 0.1 | C[C@@H](NC(=S)NCC(O)c1cc(Br)ccc1O)c1cccc(O)c1 (some centres unmarked) [Example 116]
27 | 30 | COc1cc2c(cc1OC)CN(C(=S)NCCc1ccccc1)CC2 [Example 4]
28 | 3 | CC(C)(C)OC(=O)NCC(=O)Nc1cccc(CNC(=S)NCCc2ccccc2)c1 [Example 82, tert-butyl (3-{[3-(2-phenylethyl)thioureido]methyl}phenylcarbamoyl)methylcarbamate]
29 | 10 | COc1cccc(OC)c1NC(=S)NCCc1c[nH]c2ccc(O)cc12 [Example 126]
30 | 1 | Oc1ccc(CNC(=S)NCCc2ccccc2)cc1 [Example 43]
31 | 10 | COC[C@@H](Cc1ccccc1)NC(=S)NCc1ccccc1 [Example 84]
32 | 10 | CCC[C@@H](NC(=S)NCCc1ccccc1O)c1ccccc1 [Example 99]
33 | 1 | S=C(NCCc1ccccc1)NCc1ccccc1 [Example 8]
34 | 0.3 | Cc1ccc(O)c(C(O)CNC(=S)N[C@H](C)c2cccc(O)c2)c1 (some centres unmarked) [Example 113]
35 | 1 | O=C(O)c1ccccc1NC(=S)Nc1ccccc1 [Example 39]
36 | 1 | Oc1ccc(CNC(=S)NCCc2ccccc2)cc1O [Example 40, 1-(3,4-dihydroxybenzyl)-3-(2-phenylethyl)thiourea]
37 | 1 | CN(Cc1ccc(O)c(O)c1)C(=S)NCCc1ccc(Cl)cc1 [Example 5]
38 | 1 | S=C(NCCc1ccccc1)NCc1ccco1 [Example 21]

— US20140004243A1, “SALTY TASTE ENHANCER” (AJINOMOTO CO., INC., priority 2011, published 2014)
